In the NIST ThermoML archive (doi:10.1016/j.jct.2009.10.007):

What was measured:
[1] = mn = molality of the nth substance listed, in mol/kg; details: 101 kPa, Liquid; for speed of sound: Sing-around technique in a fixed-path interferometer; for mass density: Vibrating tube method
[2] = refractive index (Na D-line) (dimensionless); mn = molality of the nth substance listed, in mol/kg; details: 308.15 K, 101 kPa, Liquid, Standard Abbe refractometry

CCCCn1cc[n+](C)c1.[Br-] [1-butyl-3-methylimidazolium bromide] + O
[1]
Details	mass density, 288.15 K [kg/m3]	mass density, 293.15 K [kg/m3]	mass density, 298.15 K [kg/m3]	mass density, 303.15 K [kg/m3]	mass density, 308.15 K [kg/m3]	speed of sound, 288.15 K [m/s]	speed of sound, 293.15 K [m/s]	speed of sound, 298.15 K [m/s]	speed of sound, 303.15 K [m/s]	speed of sound, 308.15 K [m/s]
m1 = 0.0183	1000.03	999.121	997.948	996.538	994.913	1468.7	1484.7	1498.8	1511	1521.5
m1 = 0.0274	1000.49	999.575	998.397	996.983	995.351	1469.8	1485.7	1499.6	1511.8	1522.2
m1 = 0.0367	1000.96	1000.04	998.851	997.432	995.796	1471	1486.7	1500.5	1512.6	1523
m1 = 0.0459	1001.42	1000.49	999.303	997.878	996.238	1472	1487.7	1501.5	1513.4	1523.7
m1 = 0.0692	1002.59	1001.64	1000.44	999.002	997.347	1474.8	1490.2	1503.7	1515.5	1525.6
m1 = 0.0932	1003.78	1002.82	1001.6	1000.15	998.48	1477.3	1492.5	1505.9	1517.5	1527.4
m1 = 0.1164	1004.92	1003.94	1002.71	1001.24	999.565	1480	1495	1508.1	1519.5	1529.3
m1 = 0.141	1006.13	1005.13	1003.88	1002.4	1000.71	1483	1497.6	1510.5	1521.7	1531.2
m1 = 0.1652	1007.3	1006.29	1005.02	1003.53	1001.83	1485.6	1500.1	1512.7	1523.7	1533.1
m1 = 0.1863	1008.32	1007.29	1006.01	1004.51	1002.79	1488	1502.2	1514.7	1525.5	1534.7
m1 = 0.2114	1009.53	1008.48	1007.19	1005.67	1003.94	1490.8	1504.8	1517	1527.6	1536.6
m1 = 0.2376	1010.77	1009.71	1008.4	1006.87	1005.13	1493.6	1507.3	1519.3	1529.7	1538.5
m1 = 0.2632	1011.99	1010.91	1009.58	1008.03	1006.28	1496.4	1509.8	1521.7	1531.8	1540.4
m1 = 0.2831	1012.92	1011.83	1010.49	1008.93	1007.17	1498.5	1511.8	1523.4	1533.4	1541.8

[2]
Details	refractive index
m1 = 0.0096	1.3326
m1 = 0.02	1.3343
m1 = 0.0298	1.3358
m1 = 0.0348	1.3366
m1 = 0.0398	1.3375
m1 = 0.05	1.339
m1 = 0.0548	1.3397
m1 = 0.0598	1.3405
m1 = 0.0689	1.3419
m1 = 0.082	1.3439
m1 = 0.0854	1.3444
m1 = 0.0896	1.3451
m1 = 0.1	1.3466
m1 = 0.1192	1.3497
